Experimental data from patent publication US20130041022A1, “Glyceollins Suppress Androgen-Responsive Prostate Cancer” (UNITED STATES DEPARTMENT OF AGRICULTURE, priority 2008, published 2013).

How the values were obtained:
Assay type in all cases: cell-based, human
CDKN1B mRNA = experiment: RT-PCR CDKN1B mRNA in LNCaP cells; conditions: 48 hours treatment, 0-25 μM
Experimental: LNCaP cells cultured in 10% FBS were treated with 0, 2.5, 12.5, or 25 μM glyceollins for 48 h, total RNA isolated and mRNA levels of CDKN1A determined as described below. Results are expressed as mean+/−SD (n=3).
(§1) Determination of the effects of glyceollins on gene expression in LNCaP cells using RT-PCR. To examine the effects of glyceollins on cyclin inhibitor CDKN1A and B mRNA expression, LNCaP cells were plated in 6-well plates (0.25×10^6 cells/well) in Media A. After twenty-four hours the medium was removed and replaced with fresh medium containing vehicle, 1, 5, or 25 μM glyceollins or genistein. For experiments examining the effects of glyceollins on steroid hormone, LNCaP cells were plated in 6-well plates (0.25×10^6 cells/well) in Media A and switched to Media B containing 10% CDS 24 h after plating to minimize the effect of serum hormones. Twenty-four hours later, the medium was replaced with fresh medium containing 1 nM DHT or 17β-estradiol with or without 0-25 μM glyceollin. For all experiments fresh medium containing the test compounds was changed daily and cells were harvested for total RNA isolation using the Trizol method (Invitrogen) after 48 h. Taqman real-time PCR was used to quantify expression of the mRNA. […]

PC-3 cells = experiment: Cell cycle analysis using flow cytometry (PI), PC-3; conditions: 25 μM, 72 hours
Experimental: PC-3 cells (3×10^6 cells) were plated in T-175 flask and treated with or without 25 μM of glyceollins or genistein for 72 hr, cell cycle analysis performed as described below. Results are expressed as % of total cells (n=3).
(§2) Cell cycle analysis using flow cytometry. LNCaP or PC3 cells (3×10^6 cells) were seeded into T-175 flask in Medium A. Twenty-four hours later the medium was changed to that containing vehicle or test compounds. […] The cellular DNA was then analyzed by flow cytometry. DNA content of the cells was determined through flow cytometry using a FACScalibur cytometer (Becton Dickinson, San Jose, Calif.). Flow cytometric data files were collected and analyzed using the CELLQuest program (Becton Dickinson). […] Cell cycle distribution percentages of stained nuclei were calculated using Modfit LT software (Version 3.0, Verity Software House, Inc., Topsham, Me.). […]

LNCaP cells = experiment: Cell cycle analysis using flow cytometry (PI), LNCaP; conditions: 72 hours; glyceollins 0-25 μM, genistein 25 μM
Experimental: LNCaP cells (3×10^6 cell) were plated in T-175 flask and treated with 0, 0.25, 2.5, 12.5, or 25 μM glyceollins or with and without genistein (25 μM) for 72 hr, cell cycle analysis performed as described below. Results are expressed as % of total cells (n=3).
as §2

CDKN1A mRNA = experiment: RT-PCR CDKN1A mRNA in LNCaP cells; conditions: 48 hours treatment, 10% FBS
Experimental: LNCaP cells cultured in 10% FBS were treated with 0, 2.5, 12.5, or 25 μM glyceollins for 48 h, total RNA isolated and mRNA levels of CDKN1A determined as described below. Results are expressed as mean +/−SD (n=3).
LNCaP cells cultured in 10% FBS were treated with 0, 1, 5, 12.5 or 25 μM genistein for 48 h, total RNA isolated and mRNA levels of CDKN1A determined as described below. Results are expressed as mean+/−SD (n=3).
as §1, with “For all experiments fresh medium containing the test compounds was changed daily and cells were harvested for total RNA isolation using the Trizol method (Invitrogen) after 48 h.” left out

With `O=c1c(-c2ccc(O)cc2)coc2cc(O)cc(O)c12` [genistein] the “effect on CDKN1B mRNA levels in LNCaP cells” value (CDKN1B mRNA) was “no changes”, the “G2/M blockage in PC-3 cells” value (PC-3 cells) was “lead to G2/M blockage” and the “effect on cell cycle progression in LNCaP cells” value (LNCaP cells) was “G1/G0 arrest”. The “concentration at which significant change/induction of CDKN1A mRNA is observed” value (CDKN1A mRNA) was 25 µM.
